Experimental data reported in the kinase profiling compilation of Christmann-Franck et al. (2016).
One block for each molecule: values may come before it.

Assays:
Test in all cases: radiometric filter-binding kinase assay, Kinase HotSpot
Settings in all cases: compound 0.5 µM; ATP 10 µM
[1] = biological target: TAOK3 (human) (UniProt Q9H2K8)
[2] = biological target: ULK2 (human) (UniProt Q8IYT8)
[3] = biological target: MAP2K2 (human) (UniProt P36507)
[4] = biological target: PRKCZ (human) (UniProt Q05513)
[5] = biological target: PTK2 (human) (UniProt Q05397)
[6] = biological target: DAPK2 (human) (UniProt Q9UIK4)
[7] = biological target: NEK11 (human) (UniProt Q8NG66)
[8] = biological target: EPHB4 (human) (UniProt P54760)
[9] = biological target: ZAP70 (human) (UniProt P43403)
Chain of ZAP70 (human) (P43403 whole entry, looked up): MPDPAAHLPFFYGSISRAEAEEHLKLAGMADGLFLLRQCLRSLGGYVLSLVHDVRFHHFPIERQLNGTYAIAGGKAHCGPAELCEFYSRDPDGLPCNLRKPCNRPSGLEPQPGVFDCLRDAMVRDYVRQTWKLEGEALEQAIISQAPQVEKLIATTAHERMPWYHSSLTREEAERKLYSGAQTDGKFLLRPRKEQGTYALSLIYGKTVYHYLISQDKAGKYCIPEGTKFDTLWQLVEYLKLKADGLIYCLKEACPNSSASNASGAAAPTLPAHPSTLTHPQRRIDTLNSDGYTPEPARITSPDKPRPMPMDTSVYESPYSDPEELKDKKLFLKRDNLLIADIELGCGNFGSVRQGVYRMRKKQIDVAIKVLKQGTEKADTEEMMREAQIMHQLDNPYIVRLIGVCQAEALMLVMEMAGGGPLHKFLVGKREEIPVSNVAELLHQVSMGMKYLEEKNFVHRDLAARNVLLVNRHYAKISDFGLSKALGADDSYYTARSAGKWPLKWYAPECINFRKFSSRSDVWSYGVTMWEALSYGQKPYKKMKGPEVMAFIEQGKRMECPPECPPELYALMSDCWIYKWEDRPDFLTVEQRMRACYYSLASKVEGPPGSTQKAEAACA

[10] = biological target: NEK4 (human) (UniProt P51957)
[11] = biological target: PTK6 (human) (UniProt Q13882)
[12] = biological target: NUAK2 (human) (UniProt Q9H093)
[13] = biological target: SGK2 (human) (UniProt Q9HBY8)
[14] = biological target: SRC (human) (UniProt P12931)
[15] = biological target: RPS6KA2 KD1 KD2 (human) (UniProt Q15349)
[16] = biological target: DSTYK (human) (UniProt Q6XUX3)
[17] = biological target: INSR (human) (UniProt P06213)
[18] = biological target: MAP3K8 (human) (UniProt P41279)
[19] = biological target: NTRK1 (human) (UniProt P04629)
Chain of NTRK1 (human) (P04629 whole entry, looked up): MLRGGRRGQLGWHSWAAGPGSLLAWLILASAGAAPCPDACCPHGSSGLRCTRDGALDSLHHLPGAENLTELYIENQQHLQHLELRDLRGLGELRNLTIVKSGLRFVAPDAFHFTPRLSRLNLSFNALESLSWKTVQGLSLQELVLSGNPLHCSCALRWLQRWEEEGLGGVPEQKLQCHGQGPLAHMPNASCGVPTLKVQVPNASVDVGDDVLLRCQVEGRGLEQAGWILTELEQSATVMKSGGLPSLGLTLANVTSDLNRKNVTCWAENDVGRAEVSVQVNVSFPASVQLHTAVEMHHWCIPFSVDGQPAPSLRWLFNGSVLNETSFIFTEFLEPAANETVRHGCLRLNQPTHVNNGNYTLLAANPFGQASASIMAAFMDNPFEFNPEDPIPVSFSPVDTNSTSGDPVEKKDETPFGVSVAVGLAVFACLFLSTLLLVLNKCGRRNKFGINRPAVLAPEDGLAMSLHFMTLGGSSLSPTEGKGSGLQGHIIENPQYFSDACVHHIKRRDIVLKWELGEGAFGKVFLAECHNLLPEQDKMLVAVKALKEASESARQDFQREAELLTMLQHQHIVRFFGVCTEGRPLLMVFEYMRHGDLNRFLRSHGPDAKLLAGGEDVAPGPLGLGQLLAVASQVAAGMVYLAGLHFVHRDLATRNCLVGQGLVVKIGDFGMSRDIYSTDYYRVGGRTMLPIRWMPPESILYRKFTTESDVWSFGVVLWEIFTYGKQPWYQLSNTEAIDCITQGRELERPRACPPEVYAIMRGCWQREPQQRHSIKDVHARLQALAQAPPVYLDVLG

[20] = biological target: GSK3A (human) (UniProt P49840)
[21] = biological target: EPHA4 (human) (UniProt P54764)
[22] = biological target: CAMK2D (human) (UniProt Q13557)
[23] = biological target: BRSK1 (human) (UniProt Q8TDC3)
[24] = biological target: TEC (human) (UniProt P42680)
[25] = biological target: PTK2B (human) (UniProt Q14289)
[26] = biological target: AKT2 (human) (UniProt P31751)
[27] = biological target: LIMK1 (human) (UniProt P53667)
[28] = biological target: PAK1 (human) (UniProt Q13153)
[29] = biological target: CLK4 (human) (UniProt Q9HAZ1)
[30] = biological target: LRRK2 (human) (UniProt Q5S007)
Chain of LRRK2 (human) (Q5S007 whole entry, looked up): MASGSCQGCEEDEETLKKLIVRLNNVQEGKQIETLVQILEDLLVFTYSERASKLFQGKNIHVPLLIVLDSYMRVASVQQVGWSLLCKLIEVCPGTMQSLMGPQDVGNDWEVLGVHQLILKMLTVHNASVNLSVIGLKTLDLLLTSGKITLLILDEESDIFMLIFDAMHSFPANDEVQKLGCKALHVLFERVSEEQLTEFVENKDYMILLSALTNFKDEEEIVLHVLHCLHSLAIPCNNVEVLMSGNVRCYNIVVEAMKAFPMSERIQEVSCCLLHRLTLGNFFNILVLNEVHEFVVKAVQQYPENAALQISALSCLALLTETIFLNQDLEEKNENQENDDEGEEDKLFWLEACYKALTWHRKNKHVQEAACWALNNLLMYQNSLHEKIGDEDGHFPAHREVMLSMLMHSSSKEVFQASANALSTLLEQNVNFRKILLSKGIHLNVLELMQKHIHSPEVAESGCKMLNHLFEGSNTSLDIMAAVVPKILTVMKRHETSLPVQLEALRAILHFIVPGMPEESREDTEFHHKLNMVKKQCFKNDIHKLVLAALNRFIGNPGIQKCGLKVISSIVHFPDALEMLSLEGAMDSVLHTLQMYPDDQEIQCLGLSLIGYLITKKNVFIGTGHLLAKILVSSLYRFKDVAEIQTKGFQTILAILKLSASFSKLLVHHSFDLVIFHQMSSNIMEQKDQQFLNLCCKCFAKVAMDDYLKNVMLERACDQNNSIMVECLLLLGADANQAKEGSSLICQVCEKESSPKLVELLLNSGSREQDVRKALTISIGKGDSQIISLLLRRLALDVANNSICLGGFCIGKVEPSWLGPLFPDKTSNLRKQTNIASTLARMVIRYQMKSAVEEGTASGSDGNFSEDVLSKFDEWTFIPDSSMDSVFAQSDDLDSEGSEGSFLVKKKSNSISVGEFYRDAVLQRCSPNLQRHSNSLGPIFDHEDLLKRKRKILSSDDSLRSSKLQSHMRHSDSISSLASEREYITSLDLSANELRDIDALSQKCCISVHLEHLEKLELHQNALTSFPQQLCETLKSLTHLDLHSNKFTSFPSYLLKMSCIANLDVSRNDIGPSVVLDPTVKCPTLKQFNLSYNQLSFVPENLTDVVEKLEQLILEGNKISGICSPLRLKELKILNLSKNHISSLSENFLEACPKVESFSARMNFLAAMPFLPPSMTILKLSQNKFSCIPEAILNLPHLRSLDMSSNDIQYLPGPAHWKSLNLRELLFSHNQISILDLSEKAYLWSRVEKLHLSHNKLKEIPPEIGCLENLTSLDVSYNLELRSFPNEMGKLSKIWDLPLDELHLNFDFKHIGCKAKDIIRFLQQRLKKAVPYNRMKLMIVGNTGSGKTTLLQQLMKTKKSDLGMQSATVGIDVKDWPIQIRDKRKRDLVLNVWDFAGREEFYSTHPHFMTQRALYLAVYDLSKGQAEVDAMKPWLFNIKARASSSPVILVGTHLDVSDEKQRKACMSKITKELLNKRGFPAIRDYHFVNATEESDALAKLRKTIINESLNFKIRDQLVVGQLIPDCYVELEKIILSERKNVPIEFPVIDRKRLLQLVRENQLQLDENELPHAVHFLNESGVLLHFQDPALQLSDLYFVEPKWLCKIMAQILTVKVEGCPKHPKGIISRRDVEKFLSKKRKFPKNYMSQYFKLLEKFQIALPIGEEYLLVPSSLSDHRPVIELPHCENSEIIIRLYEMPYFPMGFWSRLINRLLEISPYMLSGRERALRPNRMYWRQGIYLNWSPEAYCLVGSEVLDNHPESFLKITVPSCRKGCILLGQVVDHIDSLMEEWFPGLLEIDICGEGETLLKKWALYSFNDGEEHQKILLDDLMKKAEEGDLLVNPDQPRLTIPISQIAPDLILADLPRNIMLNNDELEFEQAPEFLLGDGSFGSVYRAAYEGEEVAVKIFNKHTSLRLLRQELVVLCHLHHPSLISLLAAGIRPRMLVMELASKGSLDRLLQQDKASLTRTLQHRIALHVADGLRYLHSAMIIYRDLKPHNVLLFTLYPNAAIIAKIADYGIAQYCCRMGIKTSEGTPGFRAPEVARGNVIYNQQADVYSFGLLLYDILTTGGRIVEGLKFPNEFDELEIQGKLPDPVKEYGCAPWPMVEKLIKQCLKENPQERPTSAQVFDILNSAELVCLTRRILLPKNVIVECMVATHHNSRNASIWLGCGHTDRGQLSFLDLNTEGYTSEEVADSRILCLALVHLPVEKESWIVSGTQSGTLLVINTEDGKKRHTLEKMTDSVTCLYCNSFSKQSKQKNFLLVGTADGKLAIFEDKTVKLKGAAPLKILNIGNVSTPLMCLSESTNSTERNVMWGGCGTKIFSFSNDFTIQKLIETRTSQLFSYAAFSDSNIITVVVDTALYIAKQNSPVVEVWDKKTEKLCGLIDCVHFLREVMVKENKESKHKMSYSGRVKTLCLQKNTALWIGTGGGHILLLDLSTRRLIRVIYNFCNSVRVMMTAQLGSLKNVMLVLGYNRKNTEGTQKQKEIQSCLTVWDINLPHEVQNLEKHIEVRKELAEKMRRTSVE

[31] = biological target: CDK1 CCNB1 (human) (UniProt P06493+P14635)
[32] = biological target: CSNK1D (human) (UniProt P48730)
[33] = biological target: MST4 (human) (UniProt Q9P289)
[34] = biological target: STK10 (human) (UniProt O94804)
[35] = biological target: PRKCI (human) (UniProt P41743)
[36] = biological target: EPHB1 (human) (UniProt P54762)
[37] = biological target: PRKCG (human) (UniProt P05129)
[38] = biological target: SRPK2 (human) (UniProt P78362)
[39] = biological target: GRK7 (human) (UniProt Q8WTQ7)
Chain of GRK7 (human) (Q8WTQ7 whole entry, looked up): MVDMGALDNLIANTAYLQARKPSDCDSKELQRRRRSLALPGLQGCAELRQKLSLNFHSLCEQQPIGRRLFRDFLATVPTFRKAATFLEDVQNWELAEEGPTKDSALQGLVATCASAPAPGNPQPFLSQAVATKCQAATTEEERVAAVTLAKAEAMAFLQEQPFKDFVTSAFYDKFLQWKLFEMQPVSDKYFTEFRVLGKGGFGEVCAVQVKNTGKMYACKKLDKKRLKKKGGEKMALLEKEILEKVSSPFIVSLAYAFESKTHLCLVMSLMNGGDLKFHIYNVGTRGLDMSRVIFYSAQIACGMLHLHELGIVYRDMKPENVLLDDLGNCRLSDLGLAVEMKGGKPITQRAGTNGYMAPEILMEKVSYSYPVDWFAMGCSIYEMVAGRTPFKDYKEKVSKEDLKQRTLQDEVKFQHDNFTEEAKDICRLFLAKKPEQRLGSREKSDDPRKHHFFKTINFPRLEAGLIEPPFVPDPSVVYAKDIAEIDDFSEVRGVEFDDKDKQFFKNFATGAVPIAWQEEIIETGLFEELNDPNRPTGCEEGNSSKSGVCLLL

[40] = biological target: CDK5 CDK5R1 p25 (human) (UniProt Q00535+Q15078)
Chain of CDK5 CDK5R1 p25 (human) (Q00535 whole entry, looked up): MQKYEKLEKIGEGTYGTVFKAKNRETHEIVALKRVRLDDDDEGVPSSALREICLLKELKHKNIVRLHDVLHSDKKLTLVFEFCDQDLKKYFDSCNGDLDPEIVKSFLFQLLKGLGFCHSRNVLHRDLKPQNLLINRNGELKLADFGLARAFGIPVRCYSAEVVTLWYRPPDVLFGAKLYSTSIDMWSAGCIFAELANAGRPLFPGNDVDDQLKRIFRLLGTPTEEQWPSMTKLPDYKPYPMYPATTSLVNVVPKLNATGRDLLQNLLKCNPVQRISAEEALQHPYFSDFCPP
Chain of CDK5 CDK5R1 p25 (human) (Q15078 whole entry, looked up): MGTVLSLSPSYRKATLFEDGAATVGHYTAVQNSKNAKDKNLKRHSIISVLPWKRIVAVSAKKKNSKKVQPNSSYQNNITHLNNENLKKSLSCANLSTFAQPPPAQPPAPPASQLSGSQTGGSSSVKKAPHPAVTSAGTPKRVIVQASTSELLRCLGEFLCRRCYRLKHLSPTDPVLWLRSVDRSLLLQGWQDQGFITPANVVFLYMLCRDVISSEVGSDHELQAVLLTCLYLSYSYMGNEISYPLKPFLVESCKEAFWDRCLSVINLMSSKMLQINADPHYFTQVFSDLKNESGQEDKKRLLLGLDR

[41] = biological target: BMX (human) (UniProt P51813)
[42] = biological target: PDGFRB (human) (UniProt P09619)

residual activity [1]: 72.4%
residual activity [2]: 92.2%
residual activity [3]: 83.1%
residual activity [4]: 92.2%
residual activity [5]: 95.9%
residual activity [6]: 68.7%
residual activity [7]: 110%
residual activity [8]: 92.2%
residual activity [9]: 102%
residual activity [10]: 85.6%
residual activity [11]: 91.2%
residual activity [12]: 85.2%
residual activity [13]: 92.8%
residual activity [14]: 26.2%
residual activity [15]: 51%
residual activity [16]: 81.1%
residual activity [17]: 94.8%
residual activity [18]: 104%
residual activity [19]: 54.7%
residual activity [20]: 6.49%
residual activity [21]: 87.6%
residual activity [22]: 53.8%
residual activity [23]: 43.5%
residual activity [24]: 131%
residual activity [25]: 85.9%
residual activity [26]: 113%
residual activity [27]: 69.7%
residual activity [28]: 93.6%
residual activity [29]: 94.1%
residual activity [30]: 87.6%
residual activity [31]: 79.3%
residual activity [32]: 92.3%
residual activity [33]: 78.7%
residual activity [34]: 99.3%
residual activity [35]: 74.3%
residual activity [36]: 99.9%
residual activity [37]: 103%
residual activity [38]: 96.6%
residual activity [39]: 99.5%
residual activity [40]: 51.4%
residual activity [41]: 67.2%
residual activity [42]: 51.6%
SMILES: CC(=O)O/N=C1\C(=C2\C(=O)Nc3cc(Br)ccc32)Nc2ccccc21

SMILES: O=C1NC(=O)/C(=C\c2ccc3nccnc3c2)S1
residual activity [1]: 93.1%
residual activity [2]: 104%
residual activity [3]: 93.5%
residual activity [4]: 103%
residual activity [5]: 96.5%
residual activity [6]: 139%
residual activity [7]: 111%
residual activity [8]: 101%
residual activity [9]: 92.4%
residual activity [10]: 93.1%
residual activity [11]: 95.1%
residual activity [12]: 76%
residual activity [13]: 99.3%
residual activity [14]: 102%
residual activity [15]: 85.4%
residual activity [16]: 89.9%
residual activity [17]: 108%
residual activity [18]: 99.6%
residual activity [19]: 94.2%
residual activity [20]: 88.8%
residual activity [21]: 96%
residual activity [22]: 93.7%
residual activity [23]: 92.4%
residual activity [24]: 117%
residual activity [25]: 106%
residual activity [26]: 101%
residual activity [27]: 87.4%
residual activity [28]: 96%
residual activity [29]: 47.5%
residual activity [30]: 96%
residual activity [31]: 93.8%
residual activity [32]: 96.3%
residual activity [33]: 91%
residual activity [34]: 90.5%
residual activity [35]: 98.6%
residual activity [36]: 93.4%
residual activity [37]: 105%
residual activity [38]: 98.2%
residual activity [39]: 99.8%
residual activity [40]: 83.2%
residual activity [41]: 98.6%
residual activity [42]: 99.5%

SMILES: COc1ccc(OC)c2c(=S)c3ccccc3[nH]c12
residual activity [1]: 92.7%
residual activity [2]: 94.7%
residual activity [3]: 100%
residual activity [4]: 99.4%
residual activity [5]: 106%
residual activity [6]: 94%
residual activity [7]: 130%
residual activity [8]: 91.1%
residual activity [9]: 100%
residual activity [10]: 87.7%
residual activity [11]: 84%
residual activity [12]: 98.9%
residual activity [13]: 96.5%
residual activity [14]: 90.6%
residual activity [15]: 87.4%
residual activity [16]: 91.3%
residual activity [17]: 102%
residual activity [18]: 111%
residual activity [19]: 87.5%
residual activity [20]: 104%
residual activity [21]: 88.8%
residual activity [22]: 89.8%
residual activity [23]: 93.7%
residual activity [24]: 147%
residual activity [25]: 92.7%
residual activity [26]: 94.6%
residual activity [27]: 108%
residual activity [28]: 89.2%
residual activity [29]: 104%
residual activity [30]: 98%
residual activity [31]: 97.8%
residual activity [32]: 101%
residual activity [33]: 90.8%
residual activity [34]: 93.6%
residual activity [35]: 99.3%
residual activity [36]: 87.1%
residual activity [37]: 77.6%
residual activity [38]: 95.1%
residual activity [39]: 102%
residual activity [40]: 85.4%
residual activity [41]: 105%
residual activity [42]: 98.1%
